{"source": "patent US20160264565A1", "about": "“CRYSTALLINE DASATINIB PROCESS” (SHILPA MEDICARE LIMITED, priority 2013, published 2016)", "key": {"[1]": {"experiment": "Stability on handling and storage", "assay_type": "physicochemical", "settings": "handle and store for longer time", "experimental": "(§1) This stable form thus, offers various advantages in terms of storage, shelf life and favorable impurity profile.\n(§2) The new stable crystalline Form-SDI is characterized by 3-methylbutan-1-ol content in range of 10-16% w/w. […] 3-methylbutan-1-ol content even on drying for more than 20 hrs at 60-65° C. This offers advantages for large scale manufacturing in terms of handling, storage, shelf life and favorable impurity profile."}, "[2]": {"experiment": "Stability of the crystal form on drying", "assay_type": "physicochemical", "settings": "drying for more than 20 hrs at 60-65° C.", "experimental": "as §1, §2"}}}
{"smiles": "Cc1nc(Nc2ncc(C(=O)Nc3c(C)cccc3Cl)s2)cc(N2CCN(CCO)CC2)n1", "note": "[Crystalline Form-SDI of Dasatinib, N-(2-chloro-6-methylphenyl)-2-[[6-[4-(2-hydroxyethyl)-1-piperazinyl]-2-methyl-4-pyrimidinyl]amino]-5-thiazolecarboxamide]", "values": [{"measurement": "change in morphology and physicochemical characteristics on handling and storage for longer time", "setting": "[1]", "value": "without any significant or measurable change"}, {"measurement": "change in morphology and physicochemical characteristics on handling and storage for longer time", "setting": "[1]; listed as Form-SDI", "value": "without any measurable change"}, {"measurement": "stoichiometry (3-methylbutan-1-ol content) on drying", "setting": "[2]", "value": "retains its stoichiometry"}]}
